The values that follow come from PMC7515946, “Targeting of Perforin Inhibitor into the Brain Parenchyma Via a Prodrug Approach Can Decrease Oxidative Stress and Neuroinflammation and Improve Cell Survival” (Molecular Neurobiology, 2020).

In one data set the test system is mouse primary astrocytes. Put plainly: Transporter-mediated cellular uptake into primary astrocytes. It is filed as in vitro ADME. Particulars: for Vmax of cellular uptake (maximum transport capacity): 1–200 μM, 30 min. As to the method: (§1) For the cell uptake experiments, the astrocytes were seeded on 24-well plates with a density of 10 × 10^4 cells/well 3 days before the experiments. […]; Agilent Technologies, Santa Clara, CA). […] The concentrations of each compound in cell lysates were calculated from the standard curve that was prepared by spiking known amounts of compounds to ACN including the selected internal standard and normalized with protein concentration. The protein concentrations on each plate were determined as a mean of three samples by Bio-Rad Protein Assay, based on the Bradford dye-binding method, using bovine serum albumin (BSA) as a standard protein and measuring the absorbance (595 nm) by a multiplate reader (EnVision, Perkin Elmer, Inc., Waltham, MA, USA).

Experiment in data set [1]: as above
It is filed as in vitro ADME. The following applies: C57BL/6JOlaHsd, mouse. The protocol: as §1

Data set [2] is described as follows: Intracellular unbound concentrations in astrocytes (RED dialysis, Kp,uu,cell). It is filed as in vitro ADME. Particulars: mouse; for fraction unbound at 4 h, 100 μM: astrocyte homogenate, RED, 37 °C, read-out: fu,cell (unbound fraction). As to the method: The non-specific binding of compounds (100 μM) was determined in astrocyte homogenate by using the Rapid Equilibrium Dialysis (RED) device (Thermo Fisher Scientific, Inc., Waltham, MA, USA). Briefly, the astrocyte cell suspension (10 × 10^6 cells/mL) was homogenized with HBSS by the SoniPerp 150 Plus disintegrator (MSE Ltd., London, UK) (2 s × 3). The studied compound was mixed with 100 μL of cell homogenate and added to the reaction chamber. A 350-μL HBSS buffer was added to the buffer chamber. The dialysis plate was incubated at 37 °C for 4 h with shaking. Fifty microliters of samples were taken from the reaction and buffer chambers and equal size of the buffer or blank homogenate were added, respectively, to yield identical matrices. The proteins were precipitated by adding 100 μL of ice-cold ACN (including the selected internal standard; see above), and the supernatants were collected for LC-MS analysis (see above) after centrifugation at 12,000 × g for 10 min. The unbound drug fraction (fu,cell) was calculated by dividing concentration in the buffer chamber by concentration in the reaction chamber and taking into account the effect of homogenate dilution factor (D = 45 for 10 × 10^6 cells/mL cell suspension according to their weight of the cells) as described earlier.
The compound concentration ratios in astrocytes (Kp) was determined at 0.01–1.0 μM concentrations by comparing the cellular uptake amount (nmol) in cell lysates (0.1 M NaOH) per astrocyte cell volume (0.05810^−15 L/cell for 10 × 10^4 cells/well) to the concentrations (nM) detected from the surrounding buffer (HBSS) collected before cell lysing as described previously. The unbound drug concentration ratio (Kp,uu) was then calculated by multiplying the drug concentration ratio (Kp) by unbound drug fraction (fu,cell).

For the next data set, the system named is caspase-3/-7. The data set can be described thus: Caspase-3/-7 in brain of LPS-induced neuroinflammation mice. It is filed as in vivo, mouse. Particulars: for Brain caspase-3/-7 amounts, preventative treatment: 30 μmol/kg for 4 days together with LPS 250 μg/kg for 3 days; for Brain caspase-3/-7 amounts, preventative treatment / Brain caspase-3/-7 amounts, curative treatment: relative to control; for Brain caspase-3/-7 amounts, curative treatment: 30 μmol/kg on days 3 and 4, LPS 250 μg/kg for 3 days. As to the method:
Adult male C57BL/6JOlaHsd mice (Jackson Laboratories, Bar Harbor, ME, USA) were supplied by Envigo (Venray, Netherlands). Mice were housed in stainless steel cages on a 12-h light (07:00–19:00) and 12-h dark (19:00–07:00) cycle at an ambient temperature of 22 ± 1 °C with a relative humidity of 50–60%. All experiments were carried out during the light phase. Tap water and food pellets (Lactamin R36; Lactamin AB, Södertälje, Sweden) were available ad libitum. Neuroinflammation was induced by the treatment with LPS 250 μg/kg i.p once per day for 3 consequent days followed by decapitation on the 4th day. The animals were allocated to one of four treatment groups (n = 6 per group): (1) LPS-treated mice, (2) mice treated with LPS and the studied compound (30 μmol/kg; i.v.) for 3 days and 120 min before the decapitation on the 4th day (preventative efficacy), (3) mice treated with LPS for 3 days and with the studied compound (30 μmol/kg; i.v.) only for the last 2 days, and (4) control mice treated with 0.9% NaCl solution i.p. once per day for 3 days. After decapitation, mouse blood and brain samples were collected. […] The plasma layer was centrifuged again at 12,000 × g to remove the platelets. Plasma was stored at − 80 °C until analysis. The brains were snap-frozen in liquid nitrogen and stored at − 80 °C until analysis.
The effects of the compounds on the enzyme activity of caspase-3 and caspase-7 were evaluated from the snap-frozen mouse brain. Pieces of tissues (n = 3) were homogenized in 50 mM Tris–HCl (pH 7.4) 1:10 (w/v) with a bead mill homogenizer. […] The enzyme activity was measured with an Apo-ONE Homogenous Caspase-3/7 Assay kit (Promega Corporation, Madison, WI, USA) according to the manufacturer’s instruction. The assay was performed on 96-well plates, each sample having 3 replicates. Each of the sample wells contained 100 μL of the previously collected supernatant and 100 μL of the prepared Apo-ONE reagent. The blank measurement was carried out with the homogenization buffer and Apo-ONE reagent. Once all the samples and reagents were pipetted in the wells, the plate was carefully shaken for 30 s and left for incubation in dark at room temperature. The fluorescence was measured after the incubation with an EnVision 2104 Multilabel Reader (PerkinElmer, Waltham, MA, USA), with λex 499 nm and λem 521 nm. The measurement was repeated on multiple time points between 0.5 and 24 h.

Where [3] appears, read: 1–200 μM, 30 min, read-out: Km of cellular uptake.

Like-named read-outs stand apart in the source and are kept apart here.

Broadly, the Km is the concentration of substrate that gives half-maximal velocity.

Take `N[C@H](Cc1cccc(C(=O)OCc2ccc(-c3ccc(-c4ccc5c(c4)COC5=O)s3)cc2)c1)C(=O)O` [PFI-PD]: the “Vmax of cellular uptake (maximum transport capacity)” value with mouse primary astrocytes is listed as 54 ± 7 nmol/min/mg protein. The Km at 30 min in data set [1] (setting [3]) was found to be 720 µM. The Kp uu at 50 nM in data set [2] (primary astrocytes, astrocytes, 50 nM concentration, read-out: Kp,uu,cell (unbound drug accumulation ratio)) came out at 2.01 ± 0.91. Further, in data set [2], the fraction unbound at 4 h, 100 μM worked out at 7e-05 ± 4e-05. Besides, in the data set on caspase-3/-7, the “Brain caspase-3/-7 amounts, preventative treatment” value stood at 68% and the “Brain caspase-3/-7 amounts, curative treatment” value is listed as 63%. Besides, the “Brain caspase-3/-7 levels after prodrug treatment” value in the data set with caspase-3/-7 (LPS-induced mice, LPS level given as 117%) was 72–74%. For the same molecule, the “Reduction of brain caspase-3/-7 levels” value in the data set with caspase-3/-7 (as stated in the discussion (from 117 to 72–74%)) is recorded as “over 40%”.
With `O=C1OCc2cc(-c3ccc(-c4ccc(CO)cc4)s3)ccc21` [PFI], in the data set on mouse primary astrocytes, the “Vmax of cellular uptake (maximum transport capacity)” value amounted to 1.4 ± 0.4 nmol/min/mg protein. Also, in the data set with mouse primary astrocytes (mechanism with Km 8.3 μM), the “Vmax of cellular uptake, Eadie-Hofstee, first transport mechanism” value was determined as 0.036 ± 0.007 nmol/min/mg protein. Besides, in the data set on mouse primary astrocytes (mechanism with Km 680 μM), the “Vmax of cellular uptake, Eadie-Hofstee, second transport mechanism” value came to 2.53 ± 0.17 nmol/min/mg protein. Further, the Km at 30 min in data set [1] (setting [3]) stood at 98 µM; in data set [1] (read-out: Km of cellular uptake, Eadie-Hofstee, first transport mechanism), 8.3 µM; in data set [1] (read-out: Km of cellular uptake, Eadie-Hofstee, second transport mechanism) it was 680 µM. Besides, in data set [2], the fraction unbound at 4 h, 100 μM stood at 0.0053 ± 0.0001. The “Brain caspase-3/-7 amounts, preventative treatment” value in the data set on caspase-3/-7 was 156%. The “Brain caspase-3/-7 amounts, curative treatment” value in the data set on caspase-3/-7 is reported as 105%.
